Common to all, as to assay: cells
Common to all, as to set-up: species or system AML cell lines (8); Secondary HTS, 10-point dose-response in triplicate, Cell Titer Glo viability, four-parameter fit EC50

The test system of assay [1] is U937. Particulars: Homo sapiens, U-937, 72 h, read-out: U937.
Assay [2] relates to MOLM-13. As to conditions: Homo sapiens, MOLM-13, 72 h, read-out: MOLM-13.
For assay [3], the system named is CMS. As to conditions: 72 h, read-out: CMS.
The test system of assay [4] is CHRF288-11. As to conditions: 72 h, read-out: CHRF288-11.
The subject of assay [5] is MV4-11. As to conditions: Homo sapiens, MV4-11, 72 h, read-out: MV4-11.
The test system of assay [6] is CMK. As to conditions: Homo sapiens, CMK, 72 h, read-out: CMK.
Assay [7] deals with ML-2. As to conditions: Homo sapiens, ML-2, 72 h, read-out: ML-2.
The subject of assay [8] is M07e. As to conditions: M-07e, 72 h, read-out: M07e.

Consider `CCN1CCN(c2ccc(Nc3cc(N(C)C(=O)Nc4c(Cl)c(OC)cc(OC)c4Cl)ncn3)cc2)CC1` [NVP-BGJ398], for which the EC50 in assay [1], in assay [2], in assay [3], in assay [4], in assay [5] and in assay [6] was above 10 µM each time. Moreover, the EC50 in assay [7] and in assay [8] was above 10 µM throughout.
Regarding `O=C(O)CC[C@H]1CC[C@@](c2cc(F)ccc2F)(S(=O)(=O)c2ccc(Cl)cc2)CC1` [MK-0752], the EC50 in assay [1], in assay [2], in assay [3], in assay [4], in assay [5] and in assay [6] was above 10 µM throughout. In addition, the EC50 in assay [7] and in assay [8] was above 10 µM in each case.
With `COc1cc2c(NC3CCN(C)CC3)nc(N3CCCN(C)CC3)nc2cc1OCCOCCN(C)C` [SJ000785901, UNC0321], the EC50 in assay [1], in assay [2], in assay [3], in assay [4], in assay [5] and in assay [6] was above 10 µM in each case. For the same molecule, the EC50 in assay [7] and in assay [8] was above 10 µM in each case.
For `Cc1cc(Nc2ccc(NC(=O)c3ccc(Nc4ccnc5ccccc45)cc3)cc2)nc(N)n1` [SJ000785906, SGI-1027], the EC50 in assay [1] was 0.75 µM; in assay [2], 1.4 µM; in assay [3], 9.9 µM; in assay [4], 2.8 µM; in assay [5], 1.2 µM; in assay [6] it was above 10 µM. Further, the results for the EC50 in assay [7] and in assay [8] were 2.6 µM and 1.6 µM, respectively.
In the case of `COC1=C2C[C@@H](C)C[C@H](OC)[C@H](O)[C@@H](C)/C=C(\C)[C@H](OC(N)=O)[C@@H](OC)/C=C\C=C(/C)C(=O)NC(=CC1=O)C2=O` [SJ000796035, GELDANOMYCIN], the EC50 in assay [1] is above 10 µM; in assay [2], 0.021 µM; in assay [3], above 10 µM; in assay [4], above 10 µM; in assay [5], 0.0098 µM; in assay [6], above 10 µM. For the same molecule, the EC50 in assay [7] and in assay [8] was above 10 µM in each case.
On to `COc1cc2ncnc(-n3nc(-c4ccccn4)nc3N)c2cc1OC` [SJ000510891, CP-466722], for which the EC50 in assay [1], in assay [2], in assay [3], in assay [4], in assay [5] and in assay [6] was above 10 µM each time. For the same molecule, the figures for the EC50 in assay [7] and in assay [8] were above 10 µM and 0.63 µM, respectively.
As for `C=C1CCCC2(C)C[C@H]3OC(=O)C(=C)[C@H]3CC12` (stereo in doubt) [SJ000834159, ISOHELENIN], the EC50 in assay [1] was 8.2 µM; in assay [2], 5.9 µM; in assay [3], 5.4 µM; in assay [4], 6.7 µM; in assay [5] it was above 10 µM; in assay [6], 5.2 µM. For the same molecule, the values for the EC50 in assay [7] and in assay [8] were 6.6 µM and above 10 µM, respectively.
Take `O=C1Nc2ccc(I)cc2/C1=C/c1cc(Br)c(O)c(Br)c1` [SJ000287883, GW 5074]: the EC50 in assay [1], in assay [2], in assay [3], in assay [4], in assay [5] and in assay [6] was above 10 µM in each case. Besides, the EC50 in assay [7] and in assay [8] was above 10 µM throughout.
Take `CCOC(=O)c1ccc(C#Cc2ccc3c(c2)C(C)(C)CCS3)nc1` [TAZAROTENE]: the EC50 in assay [1], in assay [2], in assay [3], in assay [4], in assay [5] and in assay [6] was above 10 µM each time. In addition, the EC50 in assay [7] and in assay [8] was above 10 µM throughout.
On to `CC(C(=O)O)c1ccc(-c2ccccc2)c(F)c1` (stereo not drawn) [FLURBIPROFEN], for which the EC50 in assay [1], in assay [2], in assay [3], in assay [4], in assay [5] and in assay [6] was above 10 µM in each case. Moreover, the EC50 in assay [7] and in assay [8] was above 10 µM in each case.
`Cc1ccc(C(=O)c2cc(/C=C/C(=O)NO)n(C)c2)cc1` [SJ000833840, MC 1293]: the EC50 in assay [1] is above 10 µM; in assay [2], above 10 µM; in assay [3] it was above 10 µM; in assay [4], above 10 µM; in assay [5], above 10 µM; in assay [6] it was 8.7 µM. For the same molecule, the EC50 was above 10 µM in assay [7] and 0.45 µM in assay [8].
With `CCCCCCCCCCCCCCCCCCOP(=O)([O-])OC1CC[N+](C)(C)CC1` [PERIFOSINE], the EC50 in assay [1], in assay [2], in assay [3], in assay [4], in assay [5] and in assay [6] was above 10 µM throughout. The EC50 in assay [7] and in assay [8] was above 10 µM in each case.
`COc1cc(N2CCC(N3CCN(C)CC3)CC2)ccc1Nc1ncc(Cl)c(Nc2ccccc2S(=O)(=O)C(C)C)n1` [SJ000565231, NVP-TAE684]: the EC50 was above 10 µM in assay [1]; 0.29 µM in assay [2]; above 10 µM in assay [3]; 3.6 µM in assay [4]; 0.25 µM in assay [5]; 0.46 µM in assay [6]. The EC50 in assay [7] came out at 0.36 µM; in assay [8], 3.8 µM.
For the molecule `Nc1[nH]nc2nnc(-c3c(-c4ccccc4)nn4ccccc34)cc12` [SJ000773182, FR 180204], the EC50 in assay [1], in assay [2], in assay [3], in assay [4], in assay [5] and in assay [6] was above 10 µM in each case. Also, the EC50 in assay [7] and in assay [8] was above 10 µM each time.
For `CCNC(=O)C[C@@H]1N=C(c2ccc(Cl)cc2)c2cc(OC)ccc2-n2c(C)nnc21` [SJ000574791, I-BET-762], the EC50 in assay [1] was 4.3 µM; in assay [2], 4.6 µM; in assay [3], 9.8 µM; in assay [4], above 10 µM; in assay [5], 0.97 µM; in assay [6], above 10 µM. Besides, the EC50 in assay [7] is 9.8 µM; in assay [8], 0.001 µM.
In the case of `S=c1[nH]cnc2nc[nH]c12` [MERCAPTOPURINE], the EC50 in assay [1], in assay [2], in assay [3], in assay [4], in assay [5] and in assay [6] was above 10 µM in each case. In addition, the EC50 in assay [7] and in assay [8] was above 10 µM each time.
On to `COc1cccc(-c2cc(=O)c3ccccc3o2)c1N` [SJ000288145, PD 98059], for which the EC50 in assay [1], in assay [2], in assay [3], in assay [4], in assay [5] and in assay [6] was above 10 µM throughout. Further, the EC50 in assay [7] and in assay [8] was above 10 µM in each case.
`C/C(=C\C(=O)Nc1ccccc1C(=O)O)c1ccc2ccccc2c1` [SJ000565230, BIBR-1532]: the EC50 was above 10 µM in assay [1]; 7.7 µM in assay [2]; above 10 µM in assay [3]; 5 µM in assay [4]; above 10 µM in assay [5]; above 10 µM in assay [6]. The EC50 in assay [7] and in assay [8] was above 10 µM in each case.
In the case of `CO[C@@H]1[C@@H](OC(N)=O)[C@@H](O)[C@H](Oc2ccc3c(O)c(NC(=O)c4ccc(O)c(CC=C(C)C)c4)c(=O)oc3c2C)OC1(C)C` [NOVOBIOCIN SODIUM], the EC50 in assay [1], in assay [2], in assay [3], in assay [4], in assay [5] and in assay [6] was above 10 µM in each case. Further, the EC50 in assay [7] and in assay [8] was above 10 µM throughout.
For `C[C@@H]1COCCN1c1cc(C2(S(C)(=O)=O)CC2)nc(-c2cccc3[nH]ccc23)n1` [SJ000833844, AZ-20], the EC50 is 4.7 µM in assay [1]; above 10 µM in assay [2]; 0.6 µM in assay [3]; 2.5 µM in assay [4]; above 10 µM in assay [5]; above 10 µM in assay [6]. Further, the figures for the EC50 in assay [7] and in assay [8] were 0.031 µM and 0.2 µM, respectively.
In the case of `Nc1nc(NC2CC2)cc(-c2cccc(Cl)c2Cl)n1` [SJ000834160, TH588], the EC50 in assay [1] is 3 µM; in assay [2] it was above 10 µM; in assay [3], above 10 µM; in assay [4], above 10 µM; in assay [5], above 10 µM; in assay [6], 4.8 µM. Moreover, the results for the EC50 in assay [7] and in assay [8] were 10 µM and above 10 µM, respectively.

The record behind these values is PMC6522510 (Nature Communications, 2019).
